Test results reported in patent publication US11492379B2 (priority 2020, dated 2022).

Tested on: icSARS-CoV-2-GFP
Type: cell-based, SARS-CoV-2

## trypsin
  syncytium formation: did not trigger syncytium formation
  virus titers relative to controls: slightly lower virus titers than controls
